Laboratory results: patent US20130064768A1, “LIPOPHILIC CATIONIC PROBE FOR PET-IMAGING” (Medical Research Council, priority 2010, published 2013)
Read-outs that look alike come from different tables or passages of the source. Values belong to the compound of their own block, whether it stands above or below them.

Tests used:
[1] = Tissue and blood distribution of [3H]TPP compounds after iv tail vein injection
Procedure: A sample of the [^3H]compound solution injected was retained to calculate the specific activity, which was subsequently used to determine the tissue content of the compound. At the indicated times after injection, the mice were killed by cervical dislocation and a blood sample of ˜100-200 μL was obtained by cardiac puncture. The organs were then removed, cleared of blood, transferred to pre-chilled Eppendorf tubes on ice, weighed and stored at −80° C. until processing. The tissues taken were: heart, kidneys, liver, brain, skeletal muscle (gastrocnemius) and white adipose tissue (subcutaneous). […] The mice were monitored after injection to ensure no pathology or distress and all procedures were carried out under the approval of the University of Otago animal ethics committee.
Extraction of [^3H] Compounds from Tissues Tissues were thawed at room temperature and transferred to 50 mL Falcon tubes. Ice-cold methanol 4° C.; 1 mL/100 mg tissue wet weight) was added to the tissue and the tissue homogenised using an Ultraturrax homogeniser (2×30 s on ice).
The homogenate was transferred in 1 mL batches to 1.5 mL Eppendorf tubes and centrifuged (10,000×g for 8 min at 4° C.). The methanol extract was decanted into a 20 ml glass scintillation vial (Wheaton) and the methanol evaporated under a stream of N2. Further ice-cold methanol (1 mL/100 mg) was added to the tissue homogenate pellets, vortexed for 1 min, centrifuged as above and the methanol extract decanted to a fresh 20 mL glass scintillation vial and evaporated. This procedure was repeated 3 more times to give 5 extracts per tissue sample. […] The specific activity of the injected [^3H] compound was then used to calculate the tissue content uptake as mol compound/g wet weight tissue. The half lives of compounds in organs were determined from the first order rate constants for loss of [^3H] compound from the organs, measured as the slope of ln[TPP compound] against time for the first 5 h after iv injection.

[2] = published values; cited from earlier work
[3] = test system: mitochondrial membrane potential; experiment: Effect of the uncoupler DNP on organ uptake of [3H]FluoroUndecylTPP in vivo; set-up: species or system mice; conditions: DNP 200 or 300 μg/kg ip 15 min after probe, organs taken 15 min later; dose dependent
Procedure: (§1) After 15 min the mice were injected ip with DNP (200 or 300 μg/kg) or saline carrier and after a further 15 min later they were killed and the content of [^3H]FluoroUndecylTPP in the tissues determined. Data are means ± range for two mice per condition. B, IAM-TPP is shown being taken up in to mitochondria within a cell where it reacts with thiol proteins to form a thioether adduct that can then be detected by immunoblotting. C, Confocal image of IAM-TPP binding to mitochondria in cells. C2C12 cells were incubated with 1 μM IAM-TPP for 3 h±10 μM FCCP. The cells were then fixed and the location of the TPP moiety within the cells determined by labelling with antiserum against the TPP moiety, visualised by immunofluorescence confocal microscopy. […] The mitochondria (40 μg protein) were separated by SDS-PAGE and proteins that had been labelled with IAM-TPP were detected by immunoblotting using antiserum against the TPP moiety. […]
Therefore it is likely that once the alkylTPP compounds are accumulated within tissues they are predominantly localised within mitochondria, driven by the membrane potential. To see if this was the case in these experiments, it was next determined if the uptake of the alkylTPP compounds in vivo was decreased by lowering the mitochondrial membrane potential. […]

[4] = test system: liver and heart mitochondria; experiment: IAM-TPP uptake by mitochondria in vivo (immunoblot with anti-TPP antiserum); set-up: species or system mice; conditions: 500 nmol iv, mitochondria isolated 1 h later
Procedure: as §1
(§2) To assess uptake of IAM-TPP by mitochondria in vivo, mice were injected iv by the tail vein as above with 500 nmol IAM-TPP in 100 μL sterile PBS. One hour later the mice were killed by cervical dislocation and liver and heart mitochondria prepared by homogenisation followed by differential centrifugation and the protein content determined by the bicinchoninic acid assay using bovine serum albumin as a standard. […]

[5] = Octan-1-ol/PBS partition coefficient; conditions: determined in this study
[6] = test system: C2C12 cells; experiment: IAM-TPP uptake into mitochondria within cells (immunocytochemistry, confocal microscopy); type: cell-based, mouse; conditions: 1 μM, 3 h, ±10 μM FCCP
Procedure: as §1, §2

[7] = test system: mitochondrial protein thiols; experiment: Incubation of IAM-TPP with isolated mitochondria; conditions: data not shown
[8] = Monitoring of mice for toxicity after iv injection of TPP cations; type: in vivo; conditions: 100 nmol iv in mice
Procedure: Female C57/BL6 mice (20-25 g) were maintained on a 12 h light/dark cycle with ad libitum access to standard lab chow and water. […] A sample of the [^3H]compound solution injected was retained to calculate the specific activity, which was subsequently used to determine the tissue content of the compound. At the indicated times after injection, the mice were killed by cervical dislocation and a blood sample of ˜100-200 μL was obtained by cardiac puncture. The organs were then removed, cleared of blood, transferred to pre-chilled Eppendorf tubes on ice, weighed and stored at −80° C. until processing. The tissues taken were: heart, kidneys, liver, brain, skeletal muscle (gastrocnemius) and white adipose tissue (subcutaneous). […] The mice were monitored after injection to ensure no pathology or distress and all procedures were carried out under the approval of the University of Otago animal ethics committee.

[9] = 24 h after iv injection, other studies; cited from earlier work
[10] = mice, 100 nmol iv bolus, first 5 h after injection

half life for clearance from fat and muscle ([1]; mouse, in vivo, iv): 7 to 12 h | half life for loss from the heart ([1]; mouse, in vivo, iv): ~15 h | half life for loss from the kidneys ([1]; mouse, in vivo, iv): ~3 h | half life for loss from the liver ([1]; mouse, in vivo, iv): ~3 h
Compound: CCCCCCCCCC[P+](c1ccccc1)(c1ccccc1)c1ccccc1 [DecylTPP]
Octanol/PBS partition coefficient [2]: 5000

half life for loss from the heart [1, 10]: ~21 h | half life for loss from the kidneys [1, 10]: ~3 h | half life for loss from the liver [1, 10]: ~3 h | enhancement of organ/blood concentration ratio relative to TPMP ([1]; mice, iv): over a hundred-fold
Compound: CS(=O)(=O)[O-].FCCCCCCCCCCC[P+](c1ccccc1)(c1ccccc1)c1ccccc1 [FluoroUndecylTPP, 11-fluoroundecyltriphenylphosphonium mesylate]
decrease of uptake into the organs by DNP [3]: up to 40%

Continued, compound first:

Compound: CS(=O)(=O)[O-].O=C(CI)NCCCCC[P+](c1ccccc1)(c1ccccc1)c1ccccc1 [IAM-TPP]
labelling of mitochondrial proteins in vivo [4]: labelling of heart and liver mitochondrial proteins | Octanol/PBS partition coefficient [5]: 19±1 | localisation within cells [6]: uncoupler-sensitive localisation of IAM-TPP within mitochondria | reaction with protein thiols of isolated mitochondria [7]: rapidly reacted with protein thiols

Compound: COC1=C(OC)C(=O)C(CCCCCCCCCC[P+](c2ccccc2)(c2ccccc2)c2ccccc2)=C(C)C1=O [MitoQ]
uptake by muscle and adipose tissue ([1]; 1 h after 100 nmol iv): lower uptake | uptake by the brain ([1]; 1 h after 100 nmol iv): very little uptake | uptake by the heart ([1]; 1 h after 100 nmol iv): less extensive uptake | uptake by the liver and kidneys ([1]; 1 h after 100 nmol iv): extensive uptake | heart/blood ratio, in ratio (TPMP = 1) ([1]; 1 h after iv injection): 11 | uptake into the heart, ratio (TPMP = 1) ([1]; 1 h after iv injection): 6 | heart/blood ratio, in ratio (TPMP = 1) ([1]; 5 h after iv injection): 26 | uptake into the heart, ratio (TPMP = 1) ([1]; 5 h after iv injection): 10 | half life for loss from the heart [1, 10]: ~15 h | half life for loss from the kidneys [1, 10]: ~4 h | half life for loss from the liver [1, 10]: ~2 h | time of maximum uptake into tissues ([1]; mice, 100 nmol iv, earliest time measurable): 5 min | Octanol/PBS partition coefficient [2]: 2760 | toxicity of the injected amount [8]: non-toxic | MitoQ eliminated [9]: ~80%

Compound: C[P+](c1ccccc1)(c1ccccc1)c1ccccc1 [TPMP]
half life for loss from the heart [1, 10]: ~2 h | half life for loss from the kidneys [1, 10]: ~2 h | half life for loss from the liver [1, 10]: ~3 h | half life for clearance from fat and muscle ([1]; mice, 100 nmol iv bolus, estimate only): 1 to 2 h
